Measurements: publication PMC2962730 (Journal of neurochemistry, 2010)
Changes are numbered by the printed parent chain.

Key:
hVAChT W331L = target: T1, hVAChT W331L (Homo sapiens, UniProt Q16572, W331L); test: [3H]vesamicol saturation binding; conditions: pH 7.4
T1 sequence (Q16572 1-532 W331L): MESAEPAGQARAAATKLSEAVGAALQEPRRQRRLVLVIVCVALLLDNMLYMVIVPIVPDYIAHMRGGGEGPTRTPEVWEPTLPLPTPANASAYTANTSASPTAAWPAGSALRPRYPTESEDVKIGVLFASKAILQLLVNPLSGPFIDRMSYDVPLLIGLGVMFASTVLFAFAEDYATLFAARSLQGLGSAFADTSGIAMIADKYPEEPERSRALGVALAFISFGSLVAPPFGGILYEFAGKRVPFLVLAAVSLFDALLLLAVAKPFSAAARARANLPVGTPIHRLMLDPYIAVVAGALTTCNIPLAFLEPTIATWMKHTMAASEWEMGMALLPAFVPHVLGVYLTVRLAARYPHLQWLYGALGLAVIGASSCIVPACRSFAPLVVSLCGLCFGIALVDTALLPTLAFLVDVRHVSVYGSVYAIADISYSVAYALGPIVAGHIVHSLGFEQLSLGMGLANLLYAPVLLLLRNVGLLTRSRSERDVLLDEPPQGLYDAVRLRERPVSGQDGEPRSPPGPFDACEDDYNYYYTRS

hVAChT C391A = target: T2, hVAChT C391A (Homo sapiens, UniProt Q16572, C391A); test: [3H]vesamicol saturation binding; conditions: pH 7.4
T2 sequence (Q16572 1-532 C391A): T1 sequence (Q16572 1-532 W331L) with L331W, C391A

hVAChT M320A = target: T3, hVAChT M320A (Homo sapiens, UniProt Q16572, M320A); test: ACh equilibrium binding by competition against [3H]vesamicol
T3 sequence (Q16572 1-532 M320A): T1 sequence (Q16572 1-532 W331L) with M320A, L331W

hVAChT F392A = target: T4, hVAChT F392A (Homo sapiens, UniProt Q16572, F392A); test: [3H]ACh transport; assay type: biochemical
T4 sequence (Q16572 1-532 F392A): T1 sequence (Q16572 1-532 W331L) with L331W, F392A

hVAChT W315A = target: T5, hVAChT W315A (Homo sapiens, UniProt Q16572, W315A); test: [3H]ACh transport; assay type: biochemical
T5 sequence (Q16572 1-532 W315A): T1 sequence (Q16572 1-532 W331L) with W315A, L331W

[1] = read-out: KM, Michaelis-Menten constant for ACh transport, pH 7.4

Compound | Bmax, maximal specific [3H]vesamicol binding (VAChT expression level) (hVAChT W331L) [pmol/mg] | Bmax, maximal specific [3H]vesamicol binding (VAChT expression level) (hVAChT C391A) [pmol/mg] | Kd (hVAChT M320A) [mM] | FHA, fraction of the ACh sites that have high affinity (hVAChT M320A; M320A hVAChT, pH 7.4) | Vmax/Bmax, ACh transport normalized to Bmax (hVAChT F392A; pH 7.4) [min⁻¹] | Km (hVAChT F392A; [1]) [µM] | Vmax/Bmax, ACh transport normalized to Bmax (hVAChT W315A; pH 7.4) [min⁻¹] | Km (hVAChT W315A; [1]) [µM]
O[C@@H]1CCCC[C@H]1N1CCC(c2ccccc2)CC1 (racemic) [vesamicol, ( )-trans-2-(4-phenylpiperidino)cyclohexanol] | 14 ± 1 | 34 ± 3 | – | – | – | – | – | –
CC(=O)OCC[N+](C)(C)C [ACh, acetylcholine] | – | – | 9.2 ± 0.8 | 0.73 ± 0.11 | 11 ± 1 | 520 ± 110 | 5.2 ± 0.8 | 690 ± 220
